Here are results for 5 substances from US20040219232A1, “Methods and compounds for treating malabsorption diseases and inflammatory conditions of the gastrointestinal tract” (Zengen, Inc., priority 2003, published 2004).

In test [1] the test system is IL-1β, IL-6 and TNF-α production by celiac mucosa. As to the kind of experiment: Spontaneous (non-stimulated) cytokine production by duodenal mucosa specimens incubated 24 h in vitro, with or without synthetic α-MSH. It counts as cell-based, human. Particulars: α-MSH 10^−5 M in incubation medium, no gliadin. The text has this:
(§1) Four biopsy specimens from the distal duodenum were obtained during upper gastrointestinal endoscopy. Two of such specimens were fixed in 10% formalin and paraffin embedded for standard histological examination. The remaining two specimens from each subject were available for this research and were allocated for either 1) RT-PCR and immunohistochemical studies (N=20: 9 celiac, 7 celiac on diet, 4 normal); 2) cytokine production in vitro in the presence or absence of α-MSH(N=22: 11 celiac, 6 celiac on diet, 5 normal); or 3) cytokine production in vitro after gliadin stimulation in the presence or absence of α-MSH(N=25: 14 celiac, 6 celiac on diet, 5 normal).
(§2) A series of 47 specimen pairs were used to evaluate cytokine production by celiac mucosa in vitro and the influence of α-MSH on such production. […]
(§3) α-MSH was measured using a double-antibody radioimmunoassay (RIA) method (Eurodiagnostica, Malmo, Sweden); the sensitivity calculated from a decrease in binding of 2 SD in the zero standard was 4.8 pg/ml and the cross-reactivity with other POMC peptides (ACTH [1-24], ACTH [1-39], β-MSH, γ-MSH) is <0.002%. IL-1β, IL-6, and TNF-α were determined using commercial ELISA methods (Amersham Pharmacia Biotech, Little Chalfont, UK).
(§4) Values were expressed as means±SEM. […]

The test system of test [2] is IL-6 production by gliadin-stimulated duodenal mucosa. The test can be described thus: Gliadin-stimulated cytokine production by duodenal mucosa specimens incubated 24 h in vitro, with or without synthetic α-MSH. It counts as cell-based, human. Particulars: co-incubation with α-MSH 10^−5 M, controls, untreated celiac and treated celiac patients (all groups), ELISA.
From the text: as §1, §2, §3, §4
Background: An ELISA detects its analyte on a solid surface through an enzyme-linked reagent.

The conditions of test [3]: compared with L-form tripeptide; cited from earlier work.
Test [4] can be described thus: Potency/efficacy of α-MSH fragments and derivatives compared to parent α-MSH (anti-inflammatory and/or antipyretic properties). Conditions: discovered by the inventors; no method or data given. An excerpt: It is contemplated that derivatives of α-MSH will have analogous function. It is understood that derivatives of α-MSH means functionally equivalent peptides. […] Thus, α-MSH derivative would include, among others, the partial segments of the 13 amino acid peptide. Specifically, α-MSH is composed of the following sequence of amino acids: SYSMEHFRWGKPV (SEQ ID. NO. 1). […] These derivatives of the parent α-MSH are functional equivalents.

The conditions of test [5]: has been shown; no method given; cited from earlier work.
In a further test the test system is fever. Particulars: compared with α-MSH; cited from earlier work.

“Also recorded” adds a separate entry of the source. Where no end group is shown, it is not given here. [ ]: non-standard residue; d: D form. dNle = CCCC[C@@H](N)C(=O)O

Turning to “SYSMEHFRWGKPV [α-MSH, 13 amino acid peptide produced by post-translational processing of pro-opiomelanocortin; synthetic peptide used in the tests]”, the “Non-stimulated 24 h production of IL-1β, IL-6 and TNF-α by celiac mucosa after addition of α-MSH” value in test [1] is on record as “no change”. Besides, the “IL-6 production/release in supernatants of gliadin-stimulated duodenal specimens” value in test [2] is listed as “significantly decreased; also recorded: substantial reduction; also recorded: significantly reduced; also recorded: statistically significant inhibition”.
Take Ac-[D-K11]-α-MSH 11-13-NH2: the “Potency relative to the L-form of the tripeptide α-MSH (11-13)” value in test [3] was “same general potency”.
In the case of “His-DNle-Arg-Trp-Phe-Lys-Pro-Val (H[dNle]RWFKPV)”, the “Potency over the parent α-MSH and its derivatives” value in test [4] is given as “increased potency”.
For KPV, the “Potency/efficacy compared to parent α-MSH” value in test [5] is “as potent or more potent than the parent α-MSH”.
Take [Nle^4,D-Phe^7]-α-MSH: the “Potency in reducing fever relative to the parent peptide α-MSH” value in the test on fever is “approximately ten times more potent”.
